1 compound from paper PMC539285, “Anti-Plasmodium activity of ceramide analogs” (Malaria Journal, 2004) can be followed below.

Format in all cases: cell-based, Plasmodium falciparum
Assay [1] concerns P. falciparum. In words: Apoptosis of parasites (TdT DNA fragmentation assay, gel electrophoresis, fluorescence microscopy). Conditions: 1 μM for up to 36 hours (unpublished data, preliminary). The source says:
Ceramide is at the parting of different ways of sphingolipid metabolism. Analogs have the potential to inhibit different ceramide-metabolizing enzymes and then might have a pleiotropic effect. Ceramide analogs in amide linkage were described as potent inhibitors of alkaline ceramidase in HL60 human myeloid leukemic cells. Methylene analogs inhibit the biosynthesis of SPM and glycosphingolipids in HL60 cells, and acid ceramidase in vitro [10]. When applied to cancer cells, such analogs induced an elevation of the endogenous level of ceramide with the consequent effects of growth suppression and cell death by apoptosis. […] Apoptosis in P. falciparum is still controversial although some characteristics of apoptosis has been described in Plasmodium. […] The hypothesis that AD2646 induced parasite death through modulation of endogenous ceramide level, as observed for cancer cells, is under investigation.

In assay [2] the test system is FcB1 strain. In words: Drug combination with antimalarial drugs, strain FcB1. The note with it: FcB1 strain (data not shown). The source says:
Compound AD2646 (Figure 1) was selected to further investigate the biological effects of methylene analogs on parasite development.

Assay [3] deals with malaria-induced anion channel. Kind of assay: Malaria-induced anion channel activity, whole-cell patch-clamp. Conditions: infected erythrocytes, 24 hours, 250 nM AD2646 or 10 μM PPMP, whole-cell patch-clamp (unpublished data). The source says:
Sphingolipids preferentially interact with cholesterol in membranes, especially in detergent-resistant microdomains (DRMs or rafts). Rafts have been described in Plasmodium and are involved, at least, in the uptake of erythrocyte raft proteins and maintenance of the parasitophorous vacuole containing the parasite, inside the erythrocyte. This interaction implies : 1) van der Waals interactions between the saturated acyl chain and sphingoid moiety of sphingolipids and the rigid planar tetracyclic rings of cholesterol and 2) hydrogen bonds between the 3-β hydroxyl group of cholesterol and the fatty acyl carbonyl group resulting from the amide linkage with the sphingoid moiety. The amide-linked fatty acid function seems to have a profound stabilizing effect on cholesterol-sphingolipid interactions. It could be hypothesized that in a membrane context, methylene analogs might have a destabilizing effect on the cholesterol-sphingolipid interactions and, in consequence, modifications of membrane properties. Indeed, P. falciparum growth is characterized by a setting up of new permeabilities of the infected-erythrocyte membrane. Although the biochemical nature of these new permeabilities is still unknown, they have been characterized from an electrophysiological point of view and involve a malaria-induced anion channel. […]
(In general: In patch-clamp work, channel activity is measured electrically.)

Assay [4] relates to P. falciparum synchronized cultures. Kind of assay: Parasite stage-specific inhibitory effects and reversibility (Giemsa-stained smears). Conditions: for recovery of parasite growth after drug removal: drug removed after 11 hours. How it is done: Synchronized cultures (1–2% parasitemia) at the ring stage (0–10 hours old parasites), the trophozoite stage (25–35 hours old parasites) and the schizonte stage (40–48 hours old parasites) were maintained in the presence of drug concentrations in the vicinity of IC50 values. Aliquots were removed at the indicated times, washed three times with culture medium and maintained in culture in the absence or in the presence of a given drug. […] Parasitaemias were determined by counting 3,000 cells for each sample. Controls consisted of parasites incubated with DMSO instead of drugs processed in the same way.
To investigate the cytostatic or cytotoxic effects of AD2646 on the parasite development, cultures at the ring stage (0–10 hours), the trophozoite stage (25–35 hours) and the schizonte stage (40–48 hours) were incubated with 30, 100 or 250 nM of AD2646 for 24.5 hours for the ring stage, for 11 hours for the trophozoite stage, and for 14 hours for the schizonte stage. Aliquots were then taken, washed and incubated in the absence or the presence of drug for a further 13 hours to 24 hours depending upon the parasite stage tested (see Figure 5). Parasitaemia and parasite stages were determined on Giemsa-stained smears at time of aliquot removal and after the subsequent incubation.

Consider `CCCCCCCCCCCCCCN[C@H](CO)[C@H](O)c1ccc([N+](=O)[O-])cc1` [AD2646], for which, in assay [1], the apoptosis of parasites result is “failed to exhibit characteristic apoptosis”. For the same compound, in assay [2], the “drug combination effect with artemether” value was “non-synergistic and non-antagonistic effect”; the “drug combination effect with mefloquine” value was “non-synergistic and non-antagonistic effect”. In assay [3], the “induced anion channel activity” value is listed as “did not modulate significantly the induced channel activity”. Besides, in assay [4] (ring stage, 100 and 250 nM, no recovery after drug removal at 24 hours), the “parasite growth from the ring stage” value is given as “irreversibly blocked at the young trophozoite stage”. In assay [4] (ring stage, continuous incubation with 30 nM), the “development of the ring stage” value was “slightly affected”. The “development of the schizont stage” value in assay [4] (schizont stage, 30 nM) is given as “a slight effect was only observed”. Also, in assay [4] (schizont stage, 100 nM), the “parasite growth from the schizont stage” value was “irreversibly blocked”. Moreover, in assay [4] (trophozoite stage, 30 nM), the “recovery of parasite growth after drug removal” value is on record as “Only a partial recovery of parasite growth”. For the same compound, the “recovery of parasite growth after drug removal” value in assay [4] (trophozoite stage, 100 nM) is on record as “No recovery of parasite growth”. Further, in assay [4] (trophozoite stage, continuous incubation with 30 nM), the “development of the trophozoite stage” value is listed as “completely blocked development”.
